Assay results from ChEMBL document CHEMBL1201861, “Genomics of Drug Sensitity in Cancer screening data, Wellcome Trust Sanger Institute”.
pIC50: −log10 of the molar value.

Columns and labels:
Assay in all cases: cells
LOUCY = format: functional, cell-based, Homo sapiens; settings: Homo sapiens, LOUCY;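 also: growth inhibition of human LOUCY cells, read out with a cell viability assay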
Description: SANGER: Inhibition of human LOUCY cell growth in a cell viability assay.

BL-41 = format: functional, cell-based; settings: Homo sapiens;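 also: growth inhibition of human BL-41 cells, read out with a cell viability assay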
Description: SANGER: Inhibition of human BL-41 cell growth in a cell viability assay.

LB373-MEL-D = format: functional, cell-based, Homo sapiens; settings: Homo sapiens, LB373-MEL-D;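 also: growth inhibition of the cell line, read out in a cell viability assay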
Description: SANGER: Inhibition of human LB373-MEL-D cell growth in a cell viability assay.

COR-L23 = format: functional, cell-based; settings: Homo sapiens;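 also: cell viability assay measuring how strongly compounds suppress growth of COR-L23 cells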
Description: SANGER: Inhibition of human COR-L23 cell growth in a cell viability assay.

OE33 = format: functional, cell-based; settings: Homo sapiens;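 also: growth inhibition of human OE33 cells, measured by a cell viability assay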
Description: SANGER: Inhibition of human OE33 cell growth in a cell viability assay.

OVCAR-5 = format: functional, cell-based; settings: Homo sapiens;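 also: growth inhibition of human OVCAR-5 cells, read out with a cell viability assay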
Description: SANGER: Inhibition of human OVCAR-5 cell growth in a cell viability assay.

UACC-893 = format: functional, cell-based; settings: Homo sapiens
Description: SANGER: Inhibition of human UACC-893 cell growth in a cell viability assay.

KYSE-180 = format: functional, cell-based; settings: Homo sapiens;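 also: growth inhibition of KYSE-180 cells, read out with a cell viability assay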
Description: SANGER: Inhibition of human KYSE-180 cell growth in a cell viability assay.

PC-14 = format: functional, cell-based; settings: Homo sapiens;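 also: cell viability assay measuring inhibition of PC-14 cell growth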
Description: SANGER: Inhibition of human PC-14 cell growth in a cell viability assay.

CAL-85-1 = format: functional, cell-based; settings: Homo sapiens;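 also: growth inhibition of human CAL-85-1 cells, read out with a cell viability assay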
Description: SANGER: Inhibition of human CAL-85-1 cell growth in a cell viability assay.

NALM-6 = format: functional, cell-based, Homo sapiens; settings: Homo sapiens, NALM-6;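 also: growth inhibition of NALM-6 cells, read out with a cell viability assay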
Description: SANGER: Inhibition of human NALM-6 cell growth in a cell viability assay.

MDA-MB-453 = format: functional, cell-based; settings: Homo sapiens
Description: SANGER: Inhibition of human MDA-MB-453 cell growth in a cell viability assay.

NCI-H520 = format: functional, cell-based; settings: Homo sapiens;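 also: growth inhibition of NCI-H520 cells, measured by a cell viability assay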
Description: SANGER: Inhibition of human NCI-H520 cell growth in a cell viability assay.

NCI-H1563 = format: functional, cell-based; settings: Homo sapiens;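 also: growth inhibition of human NCI-H1563 cells, read out with a cell viability assay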
Description: SANGER: Inhibition of human NCI-H1563 cell growth in a cell viability assay.

KYSE-270 = format: functional, cell-based; settings: Homo sapiens;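 also: cell growth inhibition measured with a viability assay in the human KYSE-270 line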
Description: SANGER: Inhibition of human KYSE-270 cell growth in a cell viability assay.

NCI-H2342 = format: functional, cell-based; settings: Homo sapiens;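 also: growth inhibition of the cancer cell line, determined with a cell viability assay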
Description: SANGER: Inhibition of human NCI-H2342 cell growth in a cell viability assay.

NCI-H441 = format: functional, cell-based; settings: Homo sapiens;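 also: growth inhibition of NCI-H441 cells, read out with a cell viability assay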
Description: SANGER: Inhibition of human NCI-H441 cell growth in a cell viability assay.

MC-CAR = format: functional, cell-based, Homo sapiens; settings: Homo sapiens, MC-CAR;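 also: growth inhibition of the human MC-CAR cell line, read out by a cell viability assay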
Description: SANGER: Inhibition of human MC-CAR cell growth in a cell viability assay.

MKN-28 = format: functional, cell-based; settings: Homo sapiens;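 also: cell viability assay read-out, IC50 reflects suppression of growth of human MKN-28 cells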
Description: SANGER: Inhibition of human MKN28 cell growth in a cell viability assay.

NCI-H522 = format: functional, cell-based; settings: Homo sapiens;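 also: cell viability assay measuring growth inhibition of human NCI-H522 cells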
Description: SANGER: Inhibition of human NCI-H522 cell growth in a cell viability assay.

AN3-CA = format: functional, cell-based; settings: Homo sapiens;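 also: growth inhibition of human AN3-CA cells measured by a cell viability assay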
Description: SANGER: Inhibition of human AN3-CA cell growth in a cell viability assay.

SUP-T1 = format: functional, cell-based, Homo sapiens; settings: Homo sapiens, SUP-T1;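 also: growth inhibition of human SUP-T1 cells, read out as cell viability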
Description: SANGER: Inhibition of human SUP-T1 cell growth in a cell viability assay.

EFO-27 = format: functional, cell-based; settings: Homo sapiens;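 also: growth inhibition of EFO-27 cells, read out with a cell viability assay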
Description: SANGER: Inhibition of human EFO-27 cell growth in a cell viability assay.

NCI-H1703 = format: functional, cell-based; settings: Homo sapiens;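 also: growth inhibition of NCI-H1703 cells, read out via a cell viability assay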
Description: SANGER: Inhibition of human NCI-H1703 cell growth in a cell viability assay.

NCI-H2052 = format: functional, cell-based; settings: Homo sapiens;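 also: growth inhibition of NCI-H2052 cells, read out with a cell viability assay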
Description: SANGER: Inhibition of human NCI-H2052 cell growth in a cell viability assay.

CA46 = format: functional, cell-based, Homo sapiens; settings: Homo sapiens, CA46;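 also: growth inhibition of human CA46 cells, read out by a cell viability assay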
Description: SANGER: Inhibition of human CA46 cell growth in a cell viability assay.

SW948 = format: functional, cell-based; settings: Homo sapiens;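 also: growth inhibition of SW948 cells, read out with a cell viability assay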
Description: SANGER: Inhibition of human SW948 cell growth in a cell viability assay.

RERF-LC-MS = format: functional, cell-based; settings: Homo sapiens;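 also: growth inhibition of human RERF-LC-MS cells, read out by a cell viability assay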
Description: SANGER: Inhibition of human RERF-LC-MS cell growth in a cell viability assay.

23132-87 = format: functional, cell-based; settings: Homo sapiens
Description: SANGER: Inhibition of human 23132-87 cell growth in a cell viability assay.

SW1463 = format: functional, cell-based; settings: Homo sapiens;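 also: growth inhibition of SW1463 cells, determined with a cell viability assay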
Description: SANGER: Inhibition of human SW1463 cell growth in a cell viability assay.

RD = format: functional, cell-based; settings: Homo sapiens
Description: SANGER: Inhibition of human RD cell growth in a cell viability assay.

KYSE-140 = format: functional, cell-based; settings: Homo sapiens;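 also: cell viability assay measuring growth inhibition in human KYSE-140 cells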
Description: SANGER: Inhibition of human KYSE-140 cell growth in a cell viability assay.

BC-3 = format: functional, cell-based, Homo sapiens; settings: Homo sapiens, BC-3;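 also: cell viability assay measuring growth inhibition of human BC-3 cells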
Description: SANGER: Inhibition of human BC-3 cell growth in a cell viability assay.

PC-3 = format: functional, cell-based; settings: Homo sapiens;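 also: cell viability assay measuring growth inhibition of PC-3 cells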
Description: SANGER: Inhibition of human PC-3 cell growth in a cell viability assay.

YAPC = format: functional, cell-based; settings: Homo sapiens;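 also: growth inhibition of YAPC cells, measured with a cell viability assay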
Description: SANGER: Inhibition of human YAPC cell growth in a cell viability assay.

HCC1806 = format: functional, cell-based; settings: Homo sapiens;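 also: growth inhibition of the cancer cell line, determined with a cell viability assay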
Description: SANGER: Inhibition of human HCC1806 cell growth in a cell viability assay.

NCI-H1573 = format: functional, cell-based; settings: Homo sapiens;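 also: growth inhibition of NCI-H1573 cells, read out with a cell viability assay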
Description: SANGER: Inhibition of human NCI-H1573 cell growth in a cell viability assay.

C3A = format: functional, cell-based; settings: Homo sapiens;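 also: growth inhibition of C3A human cells, quantified with a cell viability readout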
Description: SANGER: Inhibition of human C3A cell growth in a cell viability assay.

CaR-1 = format: functional, cell-based; settings: Homo sapiens;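 also: growth inhibition of human CaR-1 cancer cells, read out with a cell viability assay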
Description: SANGER: Inhibition of human CaR-1 cell growth in a cell viability assay.

SK-HEP1 = format: functional, cell-based, SK-HEP-1; settings: Homo sapiens;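 also: cell viability readout used to quantify reduction in proliferation of human SK-HEP-1 cells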
Description: SANGER: Inhibition of human SK-HEP-1 cell growth in a cell viability assay.

HCC1599 = format: functional, cell-based, Homo sapiens; settings: Homo sapiens, HCC1599;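 also: growth inhibition of HCC1599 cells, read out in a cell viability assay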
Description: SANGER: Inhibition of human HCC1599 cell growth in a cell viability assay.

PFSK-1 = format: functional, cell-based; settings: Homo sapiens;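 also: cell viability assay measuring how strongly compounds suppress growth of human PFSK-1 cells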
Description: SANGER: Inhibition of human PFSK-1 cell growth in a cell viability assay.

Daoy = format: functional, cell-based; settings: Homo sapiens;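 also: daoy cell growth inhibition, read out as cell viability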
Description: SANGER: Inhibition of human Daoy cell growth in a cell viability assay.

AU565 = format: functional, cell-based; settings: Homo sapiens;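 also: cell viability assay measuring growth inhibition of human AU565 cells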
Description: SANGER: Inhibition of human AU565 cell growth in a cell viability assay.

SNU-387 = format: functional, cell-based; settings: Homo sapiens
Description: SANGER: Inhibition of human SNU-387 cell growth in a cell viability assay.

COLO-680N = format: functional, cell-based; settings: Homo sapiens;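 also: cell viability assay used to measure inhibition of COLO-680N cell growth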
Description: SANGER: Inhibition of human COLO-680N cell growth in a cell viability assay.

HCT-15 = format: functional, cell-based; settings: Homo sapiens;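 also: cell viability readout, IC50 reflecting suppression of HCT-15 cell growth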
Description: SANGER: Inhibition of human HCT-15 cell growth in a cell viability assay.

LP-1 = format: functional, cell-based, Homo sapiens; settings: Homo sapiens, LP-1;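 also: growth inhibition of human LP-1 cells, with the read-out taken from a cell viability assay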
Description: SANGER: Inhibition of human LP-1 cell growth in a cell viability assay.

LU-165 = format: functional, cell-based, Homo sapiens; settings: Homo sapiens, LU-165
Description: SANGER: Inhibition of human LU-165 cell growth in a cell viability assay.

MDA-MB-231 = format: functional, cell-based; settings: Homo sapiens
Description: SANGER: Inhibition of human MDA-MB-231 cell growth in a cell viability assay.

FaDu = format: functional, cell-based; settings: Homo sapiens;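 also: cell viability readout of growth inhibition in FaDu cells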
Description: SANGER: Inhibition of human FADU cell growth in a cell viability assay.

CAL-54 = format: functional, cell-based; settings: Homo sapiens;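 also: growth inhibition of CAL-54 cells, read out by a viability measurement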
Description: SANGER: Inhibition of human CAL-54 cell growth in a cell viability assay.

RPMI-6666 = format: functional, cell-based, Homo sapiens; settings: Homo sapiens, RPMI-6666
Description: SANGER: Inhibition of human RPMI-6666 cell growth in a cell viability assay.

NCI-H187 = format: functional, cell-based, Homo sapiens; settings: Homo sapiens, NCI-H187;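 also: growth inhibition of NCI-H187 cells, read out as cell viability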
Description: SANGER: Inhibition of human NCI-H187 cell growth in a cell viability assay.

SCC-4 = format: functional, cell-based; settings: Homo sapiens;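 also: growth inhibition of human SCC-4 cells, read out as cell viability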
Description: SANGER: Inhibition of human SCC-4 cell growth in a cell viability assay.

NCI-H1522 = format: functional, cell-based, Homo sapiens; settings: Homo sapiens, NCI-H1522;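 also: growth inhibition of NCI-H1522 cells, read out with a cell viability assay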
Description: SANGER: Inhibition of human NCI-H1522 cell growth in a cell viability assay.

U-698-M = format: functional, cell-based, Homo sapiens; settings: Homo sapiens, U-698-M
Description: SANGER: Inhibition of human U-698-M cell growth in a cell viability assay.

NCI-H292 = format: functional, cell-based; settings: Homo sapiens;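 also: growth inhibition of NCI-H292 cells, read out with a cell viability assay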
Description: SANGER: Inhibition of human NCI-H292 cell growth in a cell viability assay.

UMC-11 = format: functional, cell-based; settings: Homo sapiens
Description: SANGER: Inhibition of human UMC-11 cell growth in a cell viability assay.

Compound: OC[C@H](Cc1ccccc1)Nc1nc(Oc2ccc3c(c2)CCC3)nc2c1ncn2Cc1ccc(-c2ccccc2)cc1
- pIC50 (LOUCY): < 4.99
- pIC50 (BL-41): 5.43
- pIC50 (LB373-MEL-D): < 4.99
- pIC50 (COR-L23): 5.16
- pIC50 (OE33): < 4.99
- pIC50 (OVCAR-5): < 4.99
- pIC50 (UACC-893): < 4.99
- pIC50 (KYSE-180): < 4.99
- pIC50 (PC-14): < 4.99
- pIC50 (CAL-85-1): 5.35
- pIC50 (NALM-6): 5.46
- pIC50 (MDA-MB-453): < 4.99
- pIC50 (NCI-H520): < 4.99
- pIC50 (NCI-H1563): < 4.99
- pIC50 (KYSE-270): 5.75
- pIC50 (NCI-H2342): 5.43
- pIC50 (NCI-H441): < 4.99
- pIC50 (MC-CAR): < 4.99
- pIC50 (MKN-28): 5.76
- pIC50 (NCI-H522): < 4.99
- pIC50 (AN3-CA): < 4.99
- pIC50 (SUP-T1): 5.30
- pIC50 (EFO-27): < 4.99
- pIC50 (NCI-H1703): < 4.99
- pIC50 (NCI-H2052): < 4.99
- pIC50 (CA46): < 4.99
- pIC50 (SW948): < 4.99
- pIC50 (RERF-LC-MS): < 4.99
- pIC50 (23132-87): 5.22
- pIC50 (SW1463): < 4.99
- pIC50 (RD): < 4.99
- pIC50 (KYSE-140): 5.13
- pIC50 (BC-3): 5.18
- pIC50 (PC-3): < 4.99
- pIC50 (YAPC): < 4.99
- pIC50 (HCC1806): < 4.99
- pIC50 (NCI-H1573): < 4.99
- pIC50 (C3A): < 4.99
- pIC50 (CaR-1): < 4.99
- pIC50 (SK-HEP1): 5.00
- pIC50 (HCC1599): < 4.99
- pIC50 (PFSK-1): < 4.99
- pIC50 (Daoy): 5.53
- pIC50 (AU565): 5.19
- pIC50 (SNU-387): < 4.99
- pIC50 (COLO-680N): < 4.99
- pIC50 (HCT-15): 5.60
- pIC50 (LP-1): < 4.99
- pIC50 (LU-165): < 4.99
- pIC50 (MDA-MB-231): < 4.99
- pIC50 (FaDu): < 4.99
- pIC50 (CAL-54): < 4.99
- pIC50 (RPMI-6666): < 4.99
- pIC50 (NCI-H187): < 4.99
- pIC50 (SCC-4): < 4.99
- pIC50 (NCI-H1522): < 4.99
- pIC50 (U-698-M): < 4.99
- pIC50 (NCI-H292): < 4.99
- pIC50 (UMC-11): < 4.99

Compound: Cc1ccc(-n2nc(C(C)(C)C)cc2NC(=O)Nc2ccc(OCCN3CCOCC3)c3ccccc23)cc1 [DORAMAPIMOD]
- pIC50 (LB373-MEL-D): < 5.00
- pIC50 (COR-L23): < 5.00
- pIC50 (OE33): < 5.00
- pIC50 (OVCAR-5): < 5.00
- pIC50 (UACC-893): < 5.00
- pIC50 (KYSE-180): < 5.00
- pIC50 (PC-14): < 5.00
- pIC50 (CAL-85-1): < 5.00
- pIC50 (MDA-MB-453): < 5.00
- pIC50 (NCI-H520): < 5.00
- pIC50 (NCI-H1563): < 5.00
- pIC50 (KYSE-270): < 5.00
- pIC50 (NCI-H2342): < 5.00
- pIC50 (NCI-H441): < 5.00
- pIC50 (MKN-28): < 5.00
- pIC50 (NCI-H522): < 5.00
- pIC50 (AN3-CA): < 5.00
- pIC50 (EFO-27): < 5.00
- pIC50 (NCI-H1703): < 5.00
- pIC50 (NCI-H2052): < 5.00
- pIC50 (SW948): < 5.00
- pIC50 (RERF-LC-MS): < 5.00
- pIC50 (23132-87): < 5.00
- pIC50 (SW1463): < 5.00
- pIC50 (RD): < 5.00
- pIC50 (KYSE-140): < 5.00
- pIC50 (PC-3): < 5.00
- pIC50 (YAPC): < 5.00
- pIC50 (HCC1806): < 5.00
- pIC50 (NCI-H1573): < 5.00
- pIC50 (C3A): < 5.00
- pIC50 (CaR-1): < 5.00
- pIC50 (SK-HEP1): < 5.00
- pIC50 (PFSK-1): < 5.00
- pIC50 (Daoy): < 5.00
- pIC50 (AU565): < 5.00
- pIC50 (SNU-387): < 5.00
- pIC50 (COLO-680N): < 5.00
- pIC50 (HCT-15): < 5.00
- pIC50 (MDA-MB-231): < 5.00
- pIC50 (FaDu): < 5.00
- pIC50 (CAL-54): < 5.00
- pIC50 (SCC-4): < 5.00
- pIC50 (NCI-H292): < 5.00
- pIC50 (UMC-11): < 5.00
